Laboratory results as given in patent US20210333285A1, “DETECTION OF PHOSPHOKINASE SIGNATURES” (The Regents of the University of California, priority 2018, published 2021).
Where two headings read alike, the source gives them in different places.

Experiments:
[1] = tested on: BRAF^V600E melanoma cell lines; assay: Growth response to drug combinations with VEM (Bliss combination index); assay type: cell-based; conditions: A375 and Sk-Mel-28; VEM + 2nd drug
Text: (a) Summary of possible cell responses to the combination of two drugs. The heatmap on the left represents the experimental effects of combining increasing concentrations of drug A+B as changes in cancer cell growth. The middle graph is a conceptual representation of how differences in effects of drugs alone or combined can be interpreted as either synergistic, additive, or antagonistic (derived from^10). The heatmap on the right represents the calculated combination index from all experimental cell growth data points. We decided to analyze experimental profiles using the Bliss Independence model to calculate combination indices (CI) and avoid inaccuracies from dose-effect curve estimations (CI=log 2 (Eab/(Ea*Eb); synergy CI<0; additivity CI=0; antagonism CI>0) 10-12. (b) Maps of cell growth responses (left) and combination indices (right). We tested the dependency of BRAF^V600E melanoma cell lines for kinases found as differentially active by HT-KAM in patient tumors (FIG. 26a,b). We included everolimus or trametinib (bottom two rows) as experimental ‘positive’ controls and for side-by-side comparison of the effects of other kinase-targeting drugs we tested. Arrows located above and on the left of each cell growth heatmaps serve as indicators of GI50 concentrations for each drug alone.
(§1) To assess the growth/survival response of cell lines to single or combinatorial drug treatments in FIGS. 2-3 and FIGS. 20, 22, 28, 29, we used CellTiter-Glo cell viability assay (Promega; cat #G7571). Cell culture and luminescence readouts were performed in 96- and 384-well plates after 3-day treatments. Drug treatment conditions are described in the text. The effects of drug combinations on cell growth were assessed by calculating drug interaction (D.I.; two-way ANOVA using Prism or Sigma Plot software) and combination index (C.I.; following either the Loewe Additivity^6-9 or Bliss Independence models^[…]). […] We systematically tested the effects of drugs in both regular and low serum culture conditions (i.e. 5% and 0.25% FBS media). To quantitate cell death in FIG. 3 and FIGS. 28-29, FACS analysis of nuclear degradation was performed as previously described^13. Colony formation assay in FIG. 3 and FIG. 30 were performed as previously described^5.

Sk-Mel-28 = assay: 3-day CellTiter-Glo cell viability assay; assay type: cell-based; conditions: read-out: GI50, drug alone
Protocol: as §1

A375 = assay: 3-day CellTiter-Glo cell viability assay; assay type: cell-based; conditions: read-out: GI50, drug alone
Protocol: as §1

AKT1 = molecular target: T1, AKT1 (Homo sapiens, UniProt P31749); assay: HT-KAM ATP-consumption kinase activity assay with inhibitors; assay type: biochemical; conditions: control assays, data not shown
T1 construct: purchased SignalChem A16-10G

M061R.X1. CL = assay: 3-week colony formation assay; assay type: cell-based; conditions: PDX-derived cell line without high RPS6KB1
Text: (§2) (a-b) Phospho-RPS6KB profiles of two patient-derived xenografts (PDXs) tumor tissues (a) and related cell lines (b). PDXs were previously^4,5 established from patients refractory to BRAF^V600E-therapy. A limited number of primary cell lines were derived from these PDX's. (c) Sensitivity of primary melanoma cell lines to RPS6KB-inhibitor PF-4708671 in 3-week colony formation assays.
as §1

M032R6.X1. CL = assay: 3-week colony formation assay; assay type: cell-based; conditions: PDX-derived cell line with high RPS6KB1
Text: as §2, §1

LCK = LCK (Homo sapiens, UniProt P06239); conditions: literature reports; cited from earlier work
A375 myrAKT1 cells = assay: 3-day cell viability assay, myrAKT1-expressing cells; assay type: cell-based; conditions: myrAKT1-expressing vs control counterpart; p=2.77E-06
Text: FIG. 29. A375 expressing a constitutively active AKT1 oncogenic kinase remain sensitive to RPS6KB- or PIM-targeting. We exogenously expressed myrAKT1 (i.e. a constitutively active oncogenic AKT1) in A375 cells. We then tested the sensitivity of A375 myrAKT1 cells to drug combinations.
as §1

WiDr cells = assay: 3-day cell viability assay; assay type: cell-based; conditions: Homo sapiens, 72 h, read-out: GI50 concentration
Text: FIG. 20. Response of BRAF^V600E CRC cells to targeted therapy combinations. To validate the kinase activity signatures of VEM-resistant WiDr cells found by HT-KAM screen, and as a mean to assess the role of these kinases (AKT1, PDPK1, PRKCA, SGK1) as mediators of the response to VEM and their potential value as druggable vulnerabilities in our model, we used 3-day cell viability assays to monitor the response of cells to drug combinations.
as §1

[2] = Homo sapiens, SK-MEL-28, 72 h, 0.25% FBS media
[3] = Homo sapiens, SK-MEL-28, 72 h, 5% FBS media
[4] = Homo sapiens, A-375, 72 h, 0.25% FBS media
[5] = Homo sapiens, A-375, 72 h, 5% FBS media

Chain of LCK (P06239 whole entry, species assumed): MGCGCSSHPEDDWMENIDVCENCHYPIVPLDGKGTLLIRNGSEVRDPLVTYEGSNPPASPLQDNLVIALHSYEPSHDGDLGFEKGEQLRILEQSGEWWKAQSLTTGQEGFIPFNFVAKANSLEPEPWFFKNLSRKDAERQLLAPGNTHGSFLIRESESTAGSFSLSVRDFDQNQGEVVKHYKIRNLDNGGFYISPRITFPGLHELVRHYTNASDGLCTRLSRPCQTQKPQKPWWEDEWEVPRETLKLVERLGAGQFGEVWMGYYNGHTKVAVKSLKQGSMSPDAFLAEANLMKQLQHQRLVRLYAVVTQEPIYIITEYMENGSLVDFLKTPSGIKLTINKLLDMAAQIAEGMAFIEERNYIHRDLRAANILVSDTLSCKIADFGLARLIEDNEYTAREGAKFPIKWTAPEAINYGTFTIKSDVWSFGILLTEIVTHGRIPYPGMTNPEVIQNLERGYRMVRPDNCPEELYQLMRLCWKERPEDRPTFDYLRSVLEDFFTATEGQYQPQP
T1 sequence (P31749 whole entry): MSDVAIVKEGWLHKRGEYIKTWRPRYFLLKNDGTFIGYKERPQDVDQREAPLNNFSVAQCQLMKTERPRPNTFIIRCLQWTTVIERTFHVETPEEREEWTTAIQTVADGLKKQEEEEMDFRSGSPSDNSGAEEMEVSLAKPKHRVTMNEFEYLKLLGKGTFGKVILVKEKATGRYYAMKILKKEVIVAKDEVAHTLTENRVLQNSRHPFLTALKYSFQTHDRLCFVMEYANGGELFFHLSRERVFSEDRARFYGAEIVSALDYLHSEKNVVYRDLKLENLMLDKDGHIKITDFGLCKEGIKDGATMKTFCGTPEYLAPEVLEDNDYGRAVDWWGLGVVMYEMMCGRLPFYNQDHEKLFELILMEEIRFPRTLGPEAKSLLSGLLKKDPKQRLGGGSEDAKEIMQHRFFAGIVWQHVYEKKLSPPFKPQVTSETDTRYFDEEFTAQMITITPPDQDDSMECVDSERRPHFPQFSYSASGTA

Structure (SMILES) | GI50 (A375; 0.25% FBS media) [µM] | GI50 (A375; 5% FBS media) [µM] | GI50 (A375; [4]) [µM] | GI50 (A375; [5]) [µM] | effect of combination with VEM on cell growth / combination index [1] | GI50 (Sk-Mel-28; 0.25% FBS media) [µM] | GI50 (Sk-Mel-28; 5% FBS media) [µM] | GI50 (Sk-Mel-28; [2]) [µM] | GI50 (Sk-Mel-28; [3]) [µM] | other results
O=C1Cc2c([nH]c3ccc(Br)cc23)-c2ncccc2N1 [1-Azakenpaullone] | 2.5 | 20 |  |  | antagonizing the effects of VEM treatment | 10 | 20 |  |  | 
COc1ccc2c(c1)c(C1=C(c3c[nH]c4ccccc34)C(=O)NC1=O)cn2CCCN(C)C [Go6983] |  |  |  |  | limited additivity effects |  |  |  |  | 
CN(C)S(=O)(=O)c1ccc2c(c1)/C(=C/c1cc3c([nH]1)CCCC3)C(=O)N2 [SU6656] |  |  |  |  |  |  |  |  |  | IC50 (LCK): > 5 µM
CN1CCN(c2nc(C3=C(c4c[nH]c5ccccc45)C(=O)NC3=O)c3ccccc3n2)CC1 [Sotrastaurin, sotrastaurin] |  |  |  |  | limited additivity effects |  |  |  |  | 
CO[C@H]1C[C@@H]2CC[C@@H](C)[C@@](O)(O2)C(=O)C(=O)N2CCCC[C@H]2C(=O)O[C@H]([C@H](C)C[C@@H]2CC[C@@H](OCCO)[C@H](OC)C2)CC(=O)[C@H](C)/C=C(\C)[C@@H](O)[C@@H](OC)C(=O)[C@H](C)C[C@H](C)/C=C/C=C/C=C/1C [everolimus] |  |  | 10 | 5 |  |  |  | 10 | 10 | 

Now from value to compound, other results behind:

GI50 (A375; 0.25% FBS media) [µM] | GI50 (A375; 5% FBS media) [µM] | GI50 (A375; [4]) [µM] | GI50 (A375; [5]) [µM] | Structure (SMILES) | effect of combination with VEM on cell growth / combination index [1] | GI50 (Sk-Mel-28; 0.25% FBS media) [µM] | GI50 (Sk-Mel-28; 5% FBS media) [µM] | GI50 (Sk-Mel-28; [2]) [µM] | GI50 (Sk-Mel-28; [3]) [µM] | other results
12.5 | 12.5 |  |  | N[C@@H]1CCCN(c2c(/C=C3\SC(=O)NC3=O)cccc2-c2ccccc2)C1 [AZD1208] | strong growth inhibitory effects | 25 | 25 |  |  | 
> 50 | 12.5 |  |  | CC(C)CCN1c2nc(Nc3cc(F)c(O)c(F)c3)ncc2N(C)C(=O)C1C (stereo not shown) [BI-D1870] | additive effects only | 12.5 | 25 |  |  | 
 |  | > 200 | 50 | Cn1cc(-c2ccc(F)c(C(F)(F)F)c2)nc1C1CCN(c2ncnc3[nH]ncc23)CC1 [LY2584702] | strong growth inhibitory effects |  |  | 100 | 100 | 
 |  | 2.5 | 10 | NC1(c2ccc(-c3nc4ccn5c(=O)[nH]nc5c4cc3-c3ccccc3)cc2)CCC1 [MK2206] |  |  |  | 5 | 2.5 | effect on AKT1 activity (AKT1): effectively decreased AKT1 activity
16 | 32 |  |  | CCc1cncnc1N1CCN(Cc2nc3ccc(C(F)(F)F)cc3[nH]2)CC1 [PF-4708671] | strong growth inhibitory effects | 16 | 32 |  |  | sensitivity in colony formation (M061R.X1. CL): not sensitive; sensitivity in colony formation (M032R6.X1. CL): sensitive
 |  | 0.02 | 0.15 | CCCS(=O)(=O)Nc1ccc(F)c(C(=O)c2c[nH]c3ncc(-c4ccc(Cl)cc4)cc23)c1F [VEM, vemurafenib] |  |  |  | 0.31 | 0.63 | increase in GI50 versus control A375 (A375 myrAKT1 cells): 65%; GI50 (WiDr cells): 2 µM
 |  | 0.0025 | 0.005 | CC(=O)Nc1cccc(-n2c(=O)n(C3CC3)c(=O)c3c(Nc4ccc(I)cc4F)n(C)c(=O)c(C)c32)c1 [trametinib] |  |  |  | 0.01 | 0.01 | 
